Assay results published in US20150118229A1, “JAK1 SELECTIVE INHIBITOR AND USES THEREOF” (ABBVIE INC., priority 2013, published 2015).
Several values for one entry are separate records, joined by “and”; a condition that tells them apart may be missing. Equal values may be shown once. Entries after “also recorded” stand apart in the source; their conditions may differ. Read-outs that look alike come from different tables or passages of the source.

Columns and labels:
IL-6 signaling = assay: Whole blood assay IL-6 pSTAT3 CD14+; assay type: cell-based
[1] = tested on: IL-7-dependent STAT5 phosphorylation; assay: Ex vivo IL-7-stimulated pSTAT5 in blood of orally dosed rats; details: Rattus norvegicus, po; rats dosed bid 14 days, blood 12 hours after final dose; read-out: IC50, inhibition of IL-7-induced pSTAT5 formation ex vivo
Source text: Unlike other common gamma chain receptors, IL-7 receptors are expressed relatively abundantly on peripheral blood T cells, enabling the use of IL-7 as an agonist in ex vivo stimulation assays. Stimulation of whole blood with IL-7 leads to phosphorylation of STAT5, which can be measured by flow cytometry. Because STAT proteins are Jak kinase substrates, inhibition of their phosphorylation can be considered a mechanistic readout for Jak inhibition.

[2] = Pharmacokinetics in monkey; assay type: in vivo; details: for Vd: read-out: Vss
P-gp = P-gp (Homo sapiens, UniProt P08183); assay: P-gp inhibition; assay type: in vitro ADME
Sequence of P-gp (P08183 whole entry): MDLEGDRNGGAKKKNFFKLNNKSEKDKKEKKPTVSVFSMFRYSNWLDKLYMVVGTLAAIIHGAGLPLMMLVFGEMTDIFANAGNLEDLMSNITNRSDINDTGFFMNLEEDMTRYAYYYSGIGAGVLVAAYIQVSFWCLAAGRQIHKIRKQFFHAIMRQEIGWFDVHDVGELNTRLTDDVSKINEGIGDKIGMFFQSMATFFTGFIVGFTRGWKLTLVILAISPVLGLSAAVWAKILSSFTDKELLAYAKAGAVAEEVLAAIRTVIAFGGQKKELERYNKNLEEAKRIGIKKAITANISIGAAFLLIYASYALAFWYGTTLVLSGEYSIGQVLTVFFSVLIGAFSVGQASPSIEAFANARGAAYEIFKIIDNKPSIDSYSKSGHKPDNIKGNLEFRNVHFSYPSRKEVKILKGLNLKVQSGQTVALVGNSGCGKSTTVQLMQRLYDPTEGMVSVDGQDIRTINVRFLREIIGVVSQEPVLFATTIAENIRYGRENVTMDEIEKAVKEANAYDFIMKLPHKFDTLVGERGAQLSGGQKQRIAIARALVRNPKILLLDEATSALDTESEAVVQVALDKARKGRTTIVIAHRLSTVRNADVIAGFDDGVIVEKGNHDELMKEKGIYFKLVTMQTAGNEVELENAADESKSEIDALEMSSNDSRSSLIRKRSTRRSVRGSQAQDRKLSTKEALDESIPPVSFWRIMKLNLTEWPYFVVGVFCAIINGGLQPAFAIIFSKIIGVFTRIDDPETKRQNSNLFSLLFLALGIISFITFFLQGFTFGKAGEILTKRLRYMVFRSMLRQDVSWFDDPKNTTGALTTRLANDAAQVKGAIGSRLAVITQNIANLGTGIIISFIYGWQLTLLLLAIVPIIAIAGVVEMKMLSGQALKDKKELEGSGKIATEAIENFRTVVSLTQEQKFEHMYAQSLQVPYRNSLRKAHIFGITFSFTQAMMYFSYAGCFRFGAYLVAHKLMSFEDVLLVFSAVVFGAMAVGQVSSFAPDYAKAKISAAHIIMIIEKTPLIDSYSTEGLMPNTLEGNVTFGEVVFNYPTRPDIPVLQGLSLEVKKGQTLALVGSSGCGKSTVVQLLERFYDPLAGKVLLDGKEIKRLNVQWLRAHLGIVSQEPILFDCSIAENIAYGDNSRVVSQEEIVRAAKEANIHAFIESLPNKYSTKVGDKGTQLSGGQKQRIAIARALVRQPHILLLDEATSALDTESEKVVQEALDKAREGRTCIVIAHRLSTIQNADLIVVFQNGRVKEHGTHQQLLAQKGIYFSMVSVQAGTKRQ

[3] = Metabolic stability in liver microsomes, dog; assay type: in vitro ADME; details: read-out: intrinsic clearance in liver microsomes (scaled)
all other CYPs = assay: Metabolism by all other recombinant CYPs; assay type: in vitro ADME
CYP1A2 [4] = assay: CYP induction (mRNA) in human hepatocytes, CYP1A2; assay type: in vitro ADME; details: 1, 3, and 10 μM
CYP3A4 = assay: CYP induction (mRNA) in human hepatocytes, CYP3A4; assay type: in vitro ADME; details: 1, 3, and 10 μM
Photostability = assay type: physicochemical; details: preclinical studies
Source text: In repeated-dose oral toxicity studies in rats and dogs of 6 and 9 months duration, respectively, no evidence of skin or ocular toxicity has been observed.

[5] = tested on: Balb/c 3T3 mouse fibroblasts; assay: Neutral red uptake phototoxicity assay; assay type: cell-based
[6] = Non-GLP 4-week oral screening toxicity study in dogs; assay type: in vivo, beagle dogs; details: dog, 4 weeks
[7] = Human PK, single ascending dose Study M13-401; assay type: in vivo; details: for AUC(0-t) / AUC(0-inf): human, in vivo
[8] = Human PK in healthy Japanese and Chinese subjects, Study M13-543; assay type: in vivo; details: for AUC12/dose / Cmax/dose / Ctrough/Dose: Day 14, mean (% CV); for half-life / AUC / concentration at 14 day / AUC(0-t): human, plasma, oral; for AUC: read-out: AUC12; for concentration at 14 day: read-out: Ctrough; for AUC(0-t): mean (% CV)
Source text: Two additional subjects were assigned to each dose level as placebo control.

OCT2 = OCT2 (Homo sapiens, UniProt O15244); assay: Transporter inhibition, OCT2; details: up to 30 μM
Sequence of OCT2 (O15244 whole entry): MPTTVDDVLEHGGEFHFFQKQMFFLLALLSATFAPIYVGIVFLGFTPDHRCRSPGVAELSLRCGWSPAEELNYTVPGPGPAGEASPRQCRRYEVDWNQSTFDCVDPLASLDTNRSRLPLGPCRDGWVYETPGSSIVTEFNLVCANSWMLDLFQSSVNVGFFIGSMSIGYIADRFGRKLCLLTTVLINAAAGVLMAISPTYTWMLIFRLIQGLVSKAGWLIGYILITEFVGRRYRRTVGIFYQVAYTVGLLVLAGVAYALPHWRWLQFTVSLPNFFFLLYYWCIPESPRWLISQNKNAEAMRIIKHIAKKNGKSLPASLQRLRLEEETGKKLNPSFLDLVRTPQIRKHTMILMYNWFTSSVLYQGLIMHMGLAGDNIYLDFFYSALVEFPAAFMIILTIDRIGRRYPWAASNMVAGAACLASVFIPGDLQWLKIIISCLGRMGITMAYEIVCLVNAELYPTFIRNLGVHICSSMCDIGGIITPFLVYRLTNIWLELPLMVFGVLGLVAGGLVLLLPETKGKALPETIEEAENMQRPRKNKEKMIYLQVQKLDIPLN

[9] = Clinical safety, Study M13-401
CYP1A2 [10] = target: CYP1A2 (Homo sapiens, UniProt P05177); assay: CYP inhibition in human liver microsomes, CYP1A2
Sequence of CYP1A2 (Homo sapiens, UniProt P05177) (P05177 whole entry): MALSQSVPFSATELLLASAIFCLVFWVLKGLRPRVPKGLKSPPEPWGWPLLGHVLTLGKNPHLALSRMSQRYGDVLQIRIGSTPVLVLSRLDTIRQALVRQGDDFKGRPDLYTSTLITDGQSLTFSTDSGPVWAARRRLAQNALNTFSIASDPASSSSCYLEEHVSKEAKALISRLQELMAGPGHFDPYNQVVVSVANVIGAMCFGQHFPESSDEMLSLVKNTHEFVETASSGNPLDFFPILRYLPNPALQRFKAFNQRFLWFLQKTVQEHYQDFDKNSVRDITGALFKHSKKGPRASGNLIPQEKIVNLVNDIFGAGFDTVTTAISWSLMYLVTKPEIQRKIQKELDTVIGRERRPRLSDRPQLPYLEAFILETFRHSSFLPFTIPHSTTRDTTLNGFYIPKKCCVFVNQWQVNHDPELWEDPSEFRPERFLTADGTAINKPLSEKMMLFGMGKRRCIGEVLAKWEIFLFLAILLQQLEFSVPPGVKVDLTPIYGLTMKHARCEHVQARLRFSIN

CYP2C9 = CYP2C9 (Homo sapiens, UniProt P11712); assay: CYP inhibition in human liver microsomes, CYP2C9
Sequence of CYP2C9 (P11712 whole entry): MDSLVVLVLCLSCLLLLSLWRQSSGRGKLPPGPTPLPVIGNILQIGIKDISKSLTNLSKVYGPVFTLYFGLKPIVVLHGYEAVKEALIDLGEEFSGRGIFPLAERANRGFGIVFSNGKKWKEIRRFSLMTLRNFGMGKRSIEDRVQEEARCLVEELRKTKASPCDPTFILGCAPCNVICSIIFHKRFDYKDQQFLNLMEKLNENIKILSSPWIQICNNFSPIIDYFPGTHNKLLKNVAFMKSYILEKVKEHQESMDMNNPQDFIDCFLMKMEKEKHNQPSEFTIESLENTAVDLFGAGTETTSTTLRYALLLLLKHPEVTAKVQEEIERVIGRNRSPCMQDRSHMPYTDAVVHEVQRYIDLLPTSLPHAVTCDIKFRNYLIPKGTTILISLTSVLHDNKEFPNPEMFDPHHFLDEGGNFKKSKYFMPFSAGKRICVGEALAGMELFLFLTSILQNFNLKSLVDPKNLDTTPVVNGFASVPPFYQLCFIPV

CYP2D6 [11] = target: T1, CYP2D6 (Homo sapiens, UniProt P10635); assay: CYP inhibition in human liver microsomes, CYP2D6
T1 sequence (P10635 whole entry): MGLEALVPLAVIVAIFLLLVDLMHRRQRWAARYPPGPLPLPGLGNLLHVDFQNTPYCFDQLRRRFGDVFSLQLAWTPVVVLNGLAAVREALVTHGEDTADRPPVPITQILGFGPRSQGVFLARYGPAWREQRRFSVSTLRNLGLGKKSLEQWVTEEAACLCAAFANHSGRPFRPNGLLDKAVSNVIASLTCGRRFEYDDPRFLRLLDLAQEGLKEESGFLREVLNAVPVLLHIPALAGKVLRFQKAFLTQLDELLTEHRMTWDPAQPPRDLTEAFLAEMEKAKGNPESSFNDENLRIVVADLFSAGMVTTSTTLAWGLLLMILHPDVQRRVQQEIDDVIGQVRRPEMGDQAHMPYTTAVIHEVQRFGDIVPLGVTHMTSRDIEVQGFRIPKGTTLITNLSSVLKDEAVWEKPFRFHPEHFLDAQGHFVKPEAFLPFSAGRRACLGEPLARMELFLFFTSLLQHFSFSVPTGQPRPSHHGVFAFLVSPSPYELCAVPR

CYP2D6 [12] = target: T1, CYP2D6; assay: Metabolism by recombinant CYP2D6; assay type: in vitro ADME; design: from tissue; host or cells: human liver microsomes
Source text: In vitro biotransformation of Compound 1 primarily occurred at imidazolpyrrolopyrazinyl ethyl pyrrolidine moiety.

IL-7-induced pSTAT5 = assay: Ex vivo stimulation assay IL-7 pSTAT5, orally dosed healthy human subjects; details: oral
[13] = plasma, oral 1 mg/kg single dose, mean (SD)
[14] = plasma, oral 10 mg/kg single dose, mean (SD)
[15] = Japanese, 6 & 24 mg single doses
[16] = 18 mg, Chinese, 18 mg BID, Day 14
[17] = 18 mg, Japanese, 18 mg BID, Day 14

With `CC[C@@H]1CN(C(=O)NCC(F)(F)F)C[C@@H]1c1cnc2cnc3[nH]ccc3n12` [Compound 1, (3S,4R)-3-ethyl-4-(3H-imidazo[1,2-a]pyrrolo[2,3-e]pyrazin-8-yl)-N-(2,2,2-trifluoroethyl)pyrrolidine-1-carboxamide] the IC50 (IL-6 signaling; read-out: IL-6 (pSTAT3, CD14+)) was 17 nM, the IC50 (IL-6 signaling; whole blood, read-out: IC50 IL-6 pSTAT3 CD14+) was 17 nM and the IC50 [1] was about 20 nM. The Vc ([2]; IV 0.1 mg/kg single dose) was 1.2 L/kg, the Vβ ([2]; IV 0.1 mg/kg single dose) was 2.2 L/kg and the Vc ([2]; IV 1.0 mg/kg single dose) was 1.0 L/kg. For the same molecule, the Vβ ([2]; IV 1.0 mg/kg single dose) was 2.2 L/kg, the F ([2]; oral 1 mg/kg single dose, mean (SD), 1 mg/kg) was 59.3% and 59.3 (18.1) % and the F ([2]; oral 10 mg/kg single dose, mean (SD)) was 52.3 (12.4) %. It also gave an AUC(0-inf) ([2]; plasma, IV 0.1 mg/kg single dose, mean (SD)) of 72 ng·h/mL, a clearance ([2]; plasma, IV 0.1 mg/kg single dose, mean (SD), read-out: CLp (converted)) of 23.3 mL/min/kg and a Vd ([2]; plasma, IV 0.1 mg/kg single dose) of 1.9 L/kg. It also gave a half-life ([2]; plasma, IV 0.1 mg/kg single dose, read-out: t1/2 (converted)) of 1.1 h, an AUC(0-inf) ([2]; plasma, IV 1.0 mg/kg single dose, mean (SD)) of 947 ng·h/mL and a clearance ([2]; plasma, IV 1.0 mg/kg single dose, mean (SD), read-out: CLp (converted)) of 20 mL/min/kg. The Vd ([2]; plasma, IV 1.0 mg/kg single dose) was 1.6 L/kg, the half-life ([2]; plasma, IV 1.0 mg/kg single dose, read-out: t1/2 (converted)) was 1.3 h and the clearance ([2]; plasma, IV, read-out: clearance (converted)) was 21.7 mL/min/kg. For the same molecule, the half-life ([2]; plasma, IV, read-out: plasma elimination t½ (converted)) was 1.2 h, the AUC(0-inf) [2, 13] was 562 ng·h/mL and the Cmax [2, 13] was 134 ng/mL. For the same molecule, the AUC(0-inf) [2, 14] was 4950 ng·h/mL, the Cmax [2, 14] was 960 ng/mL and the Tmax [2, 14] was 4.3 h. For the same molecule, the IC50 (P-gp) was 348000 nM, the CLint scaled at 0.5 μM [3] was under 33.3 mL/min/kg and the “percentage of parent remaining” value (all other CYPs) was “greater than 98.0%”. The “mRNA expression of CYP1A2” value (CYP1A2 [4]) was “did not increase”, the “mRNA expression of CYP3A4” value (CYP3A4) was “did not increase” and the photostability (Photostability) was “photoinstability”. For the same molecule, the phototoxicity potential [5] was “negative”, the NOAEL ([6]; 5 mg/kg/day) was “None” and the “Adverse Findings” value ([6]; leading number = dose mg/kg/day) was 5: Popliteal lymph. For the same molecule, the “decrease in AUC in the presence of food” value ([7]; Substudy 2, 3 mg single dose) was under 1%, the AUC(0-t) ([7]; oral, 3 mg) was 102 ng·h/mL and the AUC(0-t) ([7]; oral, 6 mg) was 159 ng·h/mL. The AUC(0-t) ([7]; oral, 24 mg) was 612 ng·h/mL, the AUC(0-inf) ([7]; single oral 1 mg, mean ± SD) was 30.1 ± 5.72 ng·h/mL and the AUC(0-t) ([7]; single oral 1 mg, mean ± SD) was 29.8 ± 5.78 ng·h/mL. It also gave an AUC(0-t) ([7]; single oral 3 mg, mean ± SD) of 102 ± 27.5 ng·h/mL, an AUC(0-t) ([7]; single oral 6 mg, mean ± SD) of 159 ± 37.5 ng·h/mL and an AUC(0-t) ([7]; single oral 12 mg, mean ± SD) of 329 ± 48.9 ng·h/mL. The AUC(0-t) ([7]; single oral 24 mg, mean ± SD) was 612 ± 78.6 ng·h/mL, the AUC(0-t) ([7]; single oral 36 mg, mean ± SD) was 909 ± 201 ng·h/mL and the AUC(0-inf) ([7]; single oral 48 mg, mean ± SD) was 1040 ± 174 ng·h/mL. The AUC(0-t) ([7]; single oral 48 mg, mean ± SD) was 1030 ± 174 ng·h/mL, the “fe, dose recovered unchanged in urine” value ([7]; single oral 1 mg, mean ± SD) was 17.7 ± 9.58% and the “fe, dose recovered unchanged in urine” value ([7]; single oral 3 mg, mean ± SD) was 15.6 ± 4.44%. The “fe, dose recovered unchanged in urine” value ([7]; single oral 6 mg, mean ± SD) was 15.6 ± 3.49%, the “fe, dose recovered unchanged in urine” value ([7]; single oral 12 mg, mean ± SD) was 19.9 ± 2.26% and the “fe, dose recovered unchanged in urine” value ([7]; single oral 24 mg, mean ± SD) was 18.6 ± 3.08%. The “fe, dose recovered unchanged in urine” value ([7]; single oral 36 mg, mean ± SD) was 20.8 ± 9.25%, the “fe, dose recovered unchanged in urine” value ([7]; single oral 48 mg, mean ± SD) was 16.4 ± 5.48% and the CL/F ([8]; Chinese, 18 mg BID, Day 14) was 39.0 L/h. The AUC12/dose ([8]; Chinese, 18 mg BID) was 25.9 ng·h/mL/mg, the Cmax/dose ([8]; Chinese, 18 mg BID) was 6.57 ng/mL/mg and the Ctrough/Dose ([8]; Chinese, 18 mg BID) was 0.43 ng/mL/mg. For the same molecule, the “AUC lower than previously observed in Western subjects” value ([8]; Japanese, 3 mg single dose) was 14%, the “Cmax lower than previously observed in Western subjects” value ([8]; Japanese, 3 mg single dose) was 22% and the CL/F ([8]; Japanese, 18 mg BID, Day 14) was 35.2 L/h. It also gave an AUC12/dose ([8]; Japanese, 18 mg BID) of 29.0 ng·h/mL/mg, a Cmax/dose ([8]; Japanese, 18 mg BID) of 7.08 ng/mL/mg and a Ctrough/Dose ([8]; Japanese, 18 mg BID) of 0.48 ng/mL/mg. For the same molecule, the “AUC higher than previously observed in Western subjects” value [8, 15] was 16-18%, the “Cmax higher than previously observed in Western subjects” value [8, 15] was 9% and the half-life ([8]; 6 mg, Japanese, single dose 6 mg, harmonic mean (pseudo % CV), not a robust estimate, read-out: t1/2 (converted)) was 5.5 h. The AUC ([8]; 18 mg, Chinese, 18 mg BID, Day 1, mean (% CV)) was 410 ng·h/mL, the AUC [8, 16] was 466 ng·h/mL and the concentration at 14 day [8, 16] was 7.7 ng/mL. For the same molecule, the AUC ([8]; 18 mg, Japanese, 18 mg BID, Day 1, mean (% CV)) was 440 ng·h/mL, the half-life ([8]; 18 mg, Japanese, 18 mg BID, Day 14, harmonic mean (pseudo % CV), read-out: t1/2 (converted)) was 9.51 h and the AUC [8, 17] was 522 ng·h/mL. It also gave a concentration at 14 day [8, 17] of 8.61 ng/mL, a half-life ([8]; Japanese, Chinese, and Western healthy subjects, read-out: terminal t1/2) of 7 to 9.5 h and an AUC(0-t) ([8]; Japanese, single dose 3 mg) of 87.9 ng·h/mL. The AUC(0-t) ([8]; Japanese, single dose 6 mg) was 185 ng·h/mL, the AUC(0-t) ([8]; Japanese, single dose 24 mg) was 722 ng·h/mL and the “dose-normalized AUC and Ctrough higher in Asians than Westerns” value ([8]; multiple BID dosing) was “approximately 20%”. For the same molecule, the “dose-normalized Cmax higher in Asians than Westerns” value ([8]; multiple BID dosing) was “approximately 40%”, the “inhibition of OCT2 uptake” value (OCT2) was “No significant inhibition” and the “effects on blood pressure and heart rate” value ([9]; FIH study, through highest single dose of 48 mg) was “no effects”. For the same molecule, the “subjects meeting predefined criteria for potentially clinically significant QT or QTcF interval” value ([9]; Study M13-401) was “No subjects”, the “adverse events severe, serious, or fatal” value ([9]; Study M13-401 Substudy 1 and 2) was “None” and the dose-limiting toxicities ([9]; healthy volunteers, single doses 1 to 48 mg and 3, 6, 12, 24 mg twice daily 14 days) was “no dose-limiting toxicities”. The “time-dependent inhibition of CYP1A2” value (CYP1A2 [10]; human liver microsomes) was “No obvious time-dependent inhibition”, the “inhibition of CYP1A2” value (CYP1A2 [10]; up to 30 μM) was “did not inhibit; also recorded: not an inhibitor” and the “time-dependent inhibition of CYP2C9” value (CYP2C9; human liver microsomes) was “No obvious time-dependent inhibition”. For the same molecule, the “inhibition of CYP2C9” value (CYP2C9; up to 30 μM) was “did not inhibit; also recorded: not an inhibitor”, the “time-dependent inhibition of CYP2D6” value (CYP2D6 [11]; human liver microsomes) was “No obvious time-dependent inhibition” and the “inhibition of CYP2D6” value (CYP2D6 [11]; up to 30 μM) was “did not inhibit; also recorded: not an inhibitor”. The “percentage of parent remaining” value (CYP2D6 [12]) was 73.4% and the “dose causing the same inhibition of IL-7-induced pSTAT5 as 5 mg tofacitinib” value (IL-7-induced pSTAT5) was 12 mg.
